In patent US7709471B2, “Compounds” (AstraZeneca AB, priority 2006, dated 2010):

These compounds were tested on human colon tumour cell line HT29 (assay: Cellular Assay (phosphohistone H3 Ser10 mitotic marker, HT29)). Details: HT-29, 24 h, HT29 cells, read-out: IC50 (cellular assay, phosphohistone H3).
Assay type: cell-based
Experimental: Chromosome condensation in mitosis is accompanied by phosphorylation of histone H3 on serine 10.
After 24 hours, cells were fixed in 3.7% (v/v) formaldehyde then permeabilised and blocked for 10 minutes in 100 μl 0.5% (v/v) Triton X-100, 1% (w/v) bovine serum albumin (BSA) in phosphate buffered saline (PBS). […] The raw assay data were analysed by non-linear regression analysis and used to determine an IC50 value for each compound.

With CC(C)N1CC2(CC2)C(=O)N(C)c2cnc(Nc3cc(F)c(C(=O)N[C@@H]4CCN(C)C4)cc3Cl)nc21 [Example 310, (R)-5-chloro-2-fluoro-4-(9′-isopropyl-5′-methyl-6′-oxo-5′,6′,8′,9′-tetrahydrospiro[cyclopropane-1,7′-pyrimido[5,4-b][1,4]diazepine]-2′-ylamino)-N-(1-methylpyrrolidin-3-yl)benzamide] as the compound, how does the IC50 read?
The IC50 was less than 1000 nM.

How did the IC50 turn out when CCN1CCC(NC(=O)c2cc(Cl)c(Nc3ncc4c(n3)N(C(C)C)CC3(CC3)C(=O)N4C)cc2F)CC1 [Example 311, 5-chloro-N-(1-ethylpiperidin-4-yl)-2-fluoro-4-(9′-isopropyl-5′-methyl-6′-oxo-5′,6′,8′,9′-tetrahydrospiro[cyclopropane-1,7′-pyrimido[5,4-b][1,4]diazepine]-2′-ylamino)benzamide] was run?
The IC50 was less than 1000 nM.

How did the IC50 turn out when COc1cc(C(=O)NCCN2CCCC2)ccc1Nc1ncc2c(n1)N(C(C)C)CC1(CC1)C(=O)N2C [Example 312, 4-(9′-isopropyl-5′-methyl-6′-oxo-5′,6′,8′,9′-tetrahydrospiro[cyclopropane-1,7′-pyrimido[5,4-b][1,4]diazepine]-2′-ylamino)-3-methoxy-N-(2-(pyrrolidin-1-yl)ethyl)benzamide] was run?
Its IC50 is less than 300 nM.

Which IC50 does the source give for COc1cc(C(=O)NCC(C)(C)CN(C)C)ccc1Nc1ncc2c(n1)N(C(C)C)CC1(CC1)C(=O)N2C [Example 313, N-(3-(dimethylamino)-2,2-dimethylpropyl)-4-(9′-isopropyl-5′-methyl-6′-oxo-5′,6′,8′,9′-tetrahydrospiro[cyclopropane-1,7′-pyrimido[5,4-b][1,4]diazepine]-2′-ylamino)-3-methoxybenzamide] here?
Its IC50 is less than 300 nM.

Which IC50 does the source give for CN1CCC(NC(=O)c2cc(Cl)c(Nc3ncc4c(n3)N(C3CCCC3)CCC(=O)N4C)c(Cl)c2F)CC1 [Example 330, 3,5-dichloro-4-[(2-cyclopentyl-6-methyl-5-oxo-2,6,9,11-tetrazabicyclo[5.4.0]undeca-7,9,11-trien-10-yl)amino]-2-fluoro-N-(1-methyl-4-piperidyl)benzamide] here?
The IC50 was less than 1000 nM.

Which IC50 does the source give for COc1cc(C(=O)NCCN2CCCC2)c(F)cc1Nc1ncc2c(n1)N(C1CCCC1)CCC(=O)N2C [Example 333, 4-[(2-cyclopentyl-6-methyl-5-oxo-2,6,9,11-tetrazabicyclo[5.4.0]undeca-7,9,11-trien-10-yl)amino]-2-fluoro-5-methoxy-N-(2-pyrrolidin-1-ylethyl)benzamide] here?
Its IC50 is less than 300 nM.

With CN1CC[C@@H](NC(=O)c2cc(F)c(Nc3ncc4c(n3)N(C3CCCC3)CCC(=O)N4C)cc2F)C1 [Example 334, 4-[(2-cyclopentyl-6-methyl-5-oxo-2,6,9,11-tetrazabicyclo[5.4.0]undeca-7,9,11-trien-10-yl)amino]-2,5-difluoro-N-[(3R)-1-methylpyrrolidin-3-yl]benzamide] as the compound, how does the IC50 read?
The IC50 was less than 300 nM.

With CN1C(=O)CCN(C2CCCC2)c2nc(Nc3cc(F)c(C(=O)NCCN4CCCC4)cc3F)ncc21 [Example 335, 4-[(2-cyclopentyl-6-methyl-5-oxo-2,6,9,11-tetrazabicyclo[5.4.0]undeca-7,9,11-trien-10-yl)amino]-2,5-difluoro-N-(2-pyrrolidin-1-ylethyl)benzamide] as the compound, how does the IC50 read?
Its IC50 is less than 300 nM.

How did the IC50 turn out when COc1cc(C(=O)N[C@@H]2CCN(C)C2)c(Cl)cc1Nc1ncc2c(n1)N(C1CCCC1)CCC(=O)N2C [Example 336, 2-chloro-4-[(2-cyclopentyl-6-methyl-5-oxo-2,6,9,11-tetrazabicyclo[5.4.0]undeca-7,9,11-trien-10-yl)amino]-5-methoxy-N-[(3R)-1-methylpyrrolidin-3-yl]benzamide] was run?
The IC50 was less than 300 nM.

CCN1CCC(NC(=O)c2cc(OC)c(Nc3ncc4c(n3)N(C3CCCC3)CCC(=O)N4C)cc2Cl)CC1 [Example 337, 2-chloro-4-[(2-cyclopentyl-6-methyl-5-oxo-2,6,9,11-tetrazabicyclo[5.4.0]undeca-7,9,11-trien-10-yl)amino]-N-(1-ethyl-4-piperidyl)-5-methoxy-benzamide] was tested. Which IC50 did it give?
The IC50 was less than 300 nM.

COc1cc(C(=O)NC2CCC(N(C)C)CC2)c(Cl)cc1Nc1ncc2c(n1)N(C1CCCC1)CCC(=O)N2C (stereo not shown) [Example 338, 2-chloro-4-[(2-cyclopentyl-6-methyl-5-oxo-2,6,9,11-tetrazabicyclo[5.4.0]undeca-7,9,11-trien-10-yl)amino]-N-(4-dimethylaminocyclohexyl)-5-methoxy-benzamide] was tested. Which IC50 did it give?
The IC50 was less than 300 nM.

How did the IC50 turn out when COc1cc(C(=O)NC2CCN(CC(C)C)CC2)ccc1Nc1ncc2c(n1)N(C1CCCC1)CCC(=O)N2C [Example 340, 4-[(2-cyclopentyl-6-methyl-5-oxo-2,6,9,11-tetrazabicyclo[5.4.0]undeca-7,9,11-trien-10-yl)amino]-3-methoxy-N-[1-(2-methylpropyl)-4-piperidyl]benzamide] was run?
The IC50 was less than 300 nM.

CN1CCC(NC(=O)c2ccc(Nc3ncc4c(n3)N(C3CCCC3)CCC(=O)N4C)c3c2OCO3)CC1 [Example 341, 7-[(2-cyclopentyl-6-methyl-5-oxo-2,6,9,11-tetrazabicyclo[5.4.0]undeca-7,9,11-trien-10-yl)amino]-N-(1-methyl-4-piperidyl)benzo[1,3]dioxole-4-carboxamide] was tested. Which IC50 did it give?
Its IC50 is less than 300 nM.

For COc1cc(C(=O)NC2CCC(N3CCC3)CC2)ccc1Nc1ncc2c(n1)N(C1CCCC1)CCC(=O)N2C (stereo not shown) [Example 346, N-[4-(azetidin-1-yl)cyclohexyl]-4-[(2-cyclopentyl-6-methyl-5-oxo-2,6,9,11-tetrazabicyclo[5.4.0]undeca-7,9,11-trien-10-yl)amino]-3-methoxy-benzamide], which IC50 is on record?
Its IC50 is less than 300 nM.

COc1cc(C(=O)NC2CCNCC2)ccc1Nc1ncc2c(n1)N(C1CCCC1)CC(C)(C)C(=O)N2C [Example 349, 4-[(2-cyclopentyl-4,4,6-trimethyl-5-oxo-2,6,9,11-tetrazabicyclo[5.4.0]undeca-7,9,11-trien-10-yl)amino]-3-methoxy-N-(4-piperidyl)benzamide] was tested. Which IC50 did it give?
The IC50 was less than 300 nM.

Which IC50 does the source give for CCN1CCC(NC(=O)c2ccc(Nc3ncc4c(n3)N(C3CCCC3)CC(C)(C)C(=O)N4C)c(OC)c2)CC1 [Example 350, 4-[(2-cyclopentyl-4,4,6-trimethyl-5-oxo-2,6,9,11-tetrazabicyclo[5.4.0]undeca-7,9,11-trien-10-yl)amino]-N-(1-ethyl-4-piperidyl)-3-methoxy-benzamide] here?
The IC50 was less than 300 nM.

How did the IC50 turn out when COc1cc(C(=O)NCC(C)(C)CN(C)C)ccc1Nc1ncc2c(n1)N(C1CCCC1)CC(C)(C)C(=O)N2C [Example 351, 4-[(2-cyclopentyl-4,4,6-trimethyl-5-oxo-2,6,9,11-tetrazabicyclo[5.4.0]undeca-7,9,11-trien-10-yl)amino]-N-(3-dimethylamino-2,2-dimethyl-propyl)-3-methoxy-benzamide] was run?
The IC50 was less than 300 nM.

CCN1CCC(NC(=O)c2cc(F)c(Nc3ncc4c(n3)N(C3CCCC3)CC(C)(C)C(=O)N4C)cc2F)CC1 [Example 355, 4-[(2-cyclopentyl-4,4,6-trimethyl-5-oxo-2,6,9,11-tetrazabicyclo[5.4.0]undeca-7,9,11-trien-10-yl)amino]-N-(1-ethyl-4-piperidyl)-2,5-difluoro-benzamide] was tested. Which IC50 did it give?
The IC50 was less than 300 nM.

How did the IC50 turn out when CN1CCC(NC(=O)c2cc(F)c(Nc3ncc4c(n3)N(C3CCCC3)CC(C)(C)C(=O)N4C)cc2F)CC1 [Example 356, 4-[(2-cyclopentyl-4,4,6-trimethyl-5-oxo-2,6,9,11-tetrazabicyclo[5.4.0]undeca-7,9,11-trien-10-yl)amino]-2,5-difluoro-N-(1-methyl-4-piperidyl)benzamide] was run?
The IC50 was less than 300 nM.
